This experiment concerns the target human SOS1 (loading of human K-Ras^G12C-GDP with fluorescent GTP-analog) (Homo sapiens, UniProt Q07889). The experiment can be described thus: Biochemical assay 3: K-Ras^G12C activation assay by hSOS1 (HTRF). Particulars: read-out: Assay 3 (KRAS-Activation by SOS no GTP) activity expressed as % inhibition at 20 μM; no GTP; at 20 μM. The source says: Biochemical assay 3: K-Ras^G12C Activation Assay by hSOS1
K-Ras is a small GTPase that can bind GDP and GTP. The guanine nucleotide exchange factor SOS catalyzes the activation of K-Ras by promoting the exchange of GDP to GTP. SOS binds to K-Ras-GDP thereby opening the GDP-binding pocket to facilitate GDP release. Rebinding of excess nucleotide leads to dissociation of the K-Ras-SOS intermediate complex leaving K-Ras loaded with the nucleotide.
This assay quantifies human SOS1-mediated loading of human K-Ras^G12C-GDP with a fluorescent GTP-analog. Detection of successful loading is achieved by measuring homogenous time-resolved fluorescence resonance energy transfer (HTRF) from antiGST-Terbium (FRET donor) bound to GST-K-RasG12C to the loaded fluorescent GTP analog (FRET-acceptor).
The fluorescent GTP-analog EDA-GTP-Dy647P1 (2′/3′-O-(2-Aminoethyl-carbamoyl)-guanosine-5′-triphosphate labelled with Dy647P1 (Dyomics GmbH, Germany)) was synthesized by Jena Biosciences GmbH (Germany) and supplied as a 1 mM aqueous solution.
The assay buffer contained 10 mM HEPES pH 7.4 (Applichem), 150 mM NaCl (Sigma), 5 mM MgCl2 (Sigma), 1 mM DTT (Thermofisher), 0.05% BSA Fraction V, pH 7.0, (ICN Biomedicals), 0.0025% (v/v) Igepal (Sigma).
Concentrations of protein batches used were optimized to be within the linear range of the HTRF signal. A Ras working solution was prepared in assay buffer containing typically 100 nM GST-hK-RasG12C and 2 nM antiGST-Tb (Cisbio, France). A hSOS1 working solution was prepared in assay buffer containing typically 20 nM hSOS1 and 200 nM EDA-GTP-Dy647P1. An inhibitor control solution was prepared in assay buffer containing 200 nM EDA-GTP-Dy647P1 without hSOS1.
Fifty nl of a 100-fold concentrated solution of the test compound in DMSO were transferred into a black microtiter test plate (384 or 1536, Greiner Bio-One, Germany). For this, either a Hummingbird liquid handler (Digilab, MA, USA) or an Echo acoustic system (Labcyte, CA, USA) was used.
All steps of the assay were performed at 20° C. A volume of 2.5 μl of the Ras working solution was added to all wells of the test plate using a Multidrop dispenser (Thermo Labsystems). After 10 min preincubation, 2.5 μl of the hSOS1 working solution were added to all wells except for those wells at the side of the test plate that were subsequently filled with 2.5 μl of the inhibitor control solution. After 30 min incubation the fluorescence was measured with a Pherastar (BMG, Germany) using the HTRF module (excitation 337 nm, emission 1: 620 nm, emission 2: 665 nm).
IC50 values were calculated by 4-Parameter fitting using a commercial software package (Genedata Screener, Switzerland).

For the molecule `COc1cc2nc(C)nc(N[C@@H](C)c3ccc(-c4ccc(-c5nnc(C)o5)cc4)s3)c2cc1OC` (stereo in doubt) [Example 128, 6,7-dimethoxy-2-methyl-N-[1-{5-[4-(5-methyl-1,3,4-oxadiazol-2-yl)phenyl]thiophen-2-yl}ethyl]quinazolin-4-amine], the inhibition at 20 µM came to 16%.
The same measure for `COc1cc2nc(C)nc(N[C@@H](C)c3ccc(-c4cccc(S(C)(=O)=O)c4)s3)c2cc1OC` (stereo in doubt) [Example 173, 6,7-dimethoxy-2-methyl-N-[1-{5-[3-(methylsulfonyl)phenyl]thiophen-2-yl}ethyl]quinazolin-4-amine]: 48%; for `COc1cc2nc(C)nc(N[C@@H](C)c3ccc(-c4cccc(CNS(C)(=O)=O)c4)s3)c2cc1OC` (stereo in doubt) [Example 139, N-[3-(5-{1-[(6,7-dimethoxy-2-methylquinazolin-4-yl)amino]ethyl}thiophen-2-yl)benzyl]methanesulfonamide]: 41%.
The same measure for `COCc1ccccc1-c1ccc([C@H](C)Nc2nc(C)nc3cc(OC)c(OC)cc23)s1` (stereo in doubt) [Example 50, 6,7-dimethoxy-N-[1-{5-[2-(methoxymethyl)phenyl]thiophen-2-yl}ethyl]-2-methylquinazolin-4-amine]: 23%; for `COc1cc2nc(C)nc(N[C@@H](C)c3ccc(-c4cccc(C(=O)N(C)C)c4)s3)c2cc1OC` (stereo in doubt) [Example 51, 3-(5-{1-[(6,7-dimethoxy-2-methylquinazolin-4-yl)amino]ethyl}thiophen-2-yl)-N,N-dimethylbenzamide]: 52%; for `COc1cc2nc(C)nc(N[C@@H](C)c3ccc(-c4ccc(CNC(C)=O)cc4)s3)c2cc1OC` (stereo in doubt) [Example 138, N-[4-(5-{1-[(6,7-dimethoxy-2-methylquinazolin-4-yl)amino]ethyl}thiophen-2-yl)benzyl)acetamide]: 40%.
The same measure for `COc1cc2nc(C)nc(N[C@@H](C)c3ccc(-c4cccc(NS(C)(=O)=O)c4)s3)c2cc1OC` (stereo in doubt) [Example 165, N-[3-(5-{1-[(6,7-dimethoxy-2-methylquinazolin-4-yl)amino]ethyl}thiophen-2-yl)phenyl]methanesulfonamide]: 32%; for `COc1cc2nc(C)nc(N[C@@H](C)c3ccc(-c4ccc(CO)s4)s3)c2cc1OC` (stereo in doubt) [Example 52, (5′-{1-[(6,7-dimethoxy-2-methylquinazolin-4-yl)amino]ethyl}-2,2′-bithiophen-5-yl)methanol]: 43%.
With `COc1cc2nc(C)nc(N[C@@H](C)c3ccc(-c4ccc(C(=O)N(C)C)cc4)s3)c2cc1OC` (stereo in doubt) [Example 176, 4-(5-{1-[(6,7-dimethoxy-2-methylquinazolin-4-yl)amino]ethyl}thiophen-2-yl)-N,N-dimethylbenzamide], the inhibition at 20 µM is 42%.
The same measure for `COc1cc2nc(C)nc(N[C@@H](C)c3ccc(-c4ccc(S(C)(=O)=O)cc4)s3)c2cc1OC` (stereo in doubt) [Example 149, 6,7-dimethoxy-2-methyl-N-[1-{5-[4-(methylsulfonyl)phenyl]thiophen-2-yl}ethyl]quinazolin-4-amine]: 17%; for `COc1cc2nc(C)nc(N[C@@H](C)c3ccc(-c4ccc(CNS(C)(=O)=O)cc4)s3)c2cc1OC` (stereo in doubt) [Example 140, N-[4-(5-{1-[(6,7-dimethoxy-2-methylquinazolin-4-yl)amino]ethyl}thiophen-2-yl)benzyl]methanesulfonamide]: 33%; for `COc1cc2nc(C)nc(N[C@@H](C)c3ccc(-c4cncnc4)s3)c2cc1OC` (stereo in doubt) [Example 42, 6,7-dimethoxy-2-methyl-N-{1-[5-(pyrimidin-5-yl)thiophen-2-yl]ethyl}quinazolin-4-amine]: 48%.

As a reminder, the inhibition is the share of the control response that was lost under treatment.

(Values after patent publication US20240083857A1, “2-Methyl-Quinazolines” (Bayer Pharma Aktiengesellschaft, priority 2017, published 2024).)
